# Experiments:
# nutsedge, yellow = assay: Test C preemergence; type: in vivo, Cyperus esculentus; conditions: for Plant response rating (scale of 0 to 100 where 0 is no effect and 100 is complete control): Nutsedge, Yellow, preemergence; for Nutsedge, Yellow plant response rating (0 to 100): Preemergence, visual rating after 13 to 15 d
# Source text: (§1) Seeds of plant species selected from blackgrass (Alopecurus myosuroides), ryegrass, Italian (Italian ryegrass, Lolium multiflorum), wheat (winter wheat, Triticum aestivum), galium (catchweed bedstraw, Galium aparine), corn (Zea mays), crabgrass, large (large crabgrass, Digitaria sanguinalis), foxtail, giant, (giant foxtail, Setaria faberii), johnsongrass (Sorghum halepense), lambsquarters (Chenopodium album), morningglory (Ipomoea coccinea), nutsedge, yellow (yellow nutsedge, Cyperus esculentus), pigweed (Amaranthus retroflexus), ragweed (common ragweed, Ambrosia elatior), soybean (Glycine max), barnyardgrass (Echinochloa crus-galli), oilseed rape (Brassica napus), waterhemp (common waterhemp, Amaranthus rudis), and velvetleaf (Abutilon theophrasti) were planted into a blend of loam soil and sand and treated preemergence with test chemicals formulated in a non-phytotoxic solvent mixture which included a surfactant. At the same time, plants selected from these crop and weed species and also chickweed (common chickweed, Stellaria media), oat, wild (wild oat, Avena fatua), and kochia (Kochia scoparia), were planted in pots containing Sunshine Redi-Earth® planting medium comprising spaghnum peat moss, vermiculite, starter nutrients and dolomitic limestone and treated with postemergence applications of test chemicals formulated in the same manner. Plants ranged in height from 2 to 18 cm (1- to 4-leaf stage) for postemergence treatments. […] A dash (-) response means no test result.
# oilseed rape = assay: Test C preemergence; type: in vivo, Brassica napus; conditions: for Plant response rating (scale of 0 to 100 where 0 is no effect and 100 is complete control): Oilseed Rape, preemergence; for Oilseed Rape plant response rating (0 to 100): Preemergence, visual rating after 13 to 15 d
# Source text: as §1
# blackgrass = assay: Test D preemergence; type: in vivo, Alopecurus myosuroides; conditions: for Plant response rating (0 to 100), Blackgrass: 16 g ai/ha, 0 is no effect, 100 is complete control; for Plant response rating: Blackgrass: scale 0 to 100
# Source text: (§2) Seeds of plant species selected from bluegrass (annual bluegrass, Poa annua), blackgrass (Alopecurus myosuroides), canarygrass (Phalaris minor), chickweed (common chickweed, Stellaria media), galium (catchweed bedstraw, Galium aparine), bromegrass, down (downy bromegrass, Bromus tectorum), Russian thistle (Salsola kali), field poppy (Papaver rhoeas), field violet (Viola arvensis), foxtail, green (green foxtail, Setaria viridis), deadnettle (henbit deadnettle, Lamium amplexicaule), ryegrass, Ital. (Italian ryegrass, Lolium multiflorum), kochia (Kochia scoparia), lambsquarters (Chenopodium album), oilseed rape (Brassica napus), pigweed (Amaranthus retroflexus), chamomile (scentless chamomile, Matricaria inodora), speedwell (bird's-eye speedwell, Veronica persica), barley, spring (spring barley, Hordeum vulgare), wheat, spring (spring wheat, Triticum aestivum), buckwheat, wild (wild buckwheat, Polygonum convolvulus), wild mustard (Sinapis arvensis), oat, wild (wild oat, Avena fatua), radish, wild (wild radish, Raphanus raphanistrum), […]), barley, winter (winter barley, Hordeum vulgare), and wheat, winter (winter wheat, Triticum aestivum) were planted into a silt loam soil and treated preemergence with test chemicals formulated in a non-phytotoxic solvent mixture which included a surfactant. At the same time, these species were planted in pots containing Sunshine Redi-Earth® planting medium comprising spaghnum peat moss, vermiculite, starter nutrients and dolomitic limestone and treated with postemergence applications of the test chemicals formulated in the same manner. Plants ranged in height from 2 to 18 cm (1- to 4-leaf stage). Treated plants and controls were maintained in a controlled growth environment for 14 to 21 d after which time all species were compared to controls and visually evaluated. […] A dash (-) response means no test result.
# field violet = assay: Test D preemergence; type: in vivo, Viola arvensis; conditions: for Plant response rating (0 to 100), Field Violet: 16 g ai/ha, 0 is no effect, 100 is complete control; for Plant response rating: Field Violet: scale 0 to 100
# Source text: as §2
# kochia = assay: Test D preemergence; type: in vivo, Kochia scoparia; conditions: for Plant response rating (0 to 100), Kochia: 16 g ai/ha, 0 is no effect, 100 is complete control; for Plant response rating: Kochia: scale 0 to 100
# Source text: as §2
# wild mustard [1] = assay: Test D preemergence; type: in vivo, Sinapis arvensis; conditions: for Plant response rating (0 to 100), Mustard, Wild: 16 g ai/ha, 0 is no effect, 100 is complete control; for Plant response rating: Mustard, Wild: scale 0 to 100
# Source text: as §2
# wheat, spring = assay: Test D postemergence; type: in vivo, Triticum aestivum; conditions: scale 0 to 100
# Source text: as §2
# wheat, winter = assay: Test D postemergence; type: in vivo, Triticum aestivum; conditions: scale 0 to 100
# Source text: as §2
# wild mustard [2] = assay: Test D postemergence; type: in vivo, Sinapis arvensis; conditions: scale 0 to 100
# Source text: as §2
Compound,"Plant response rating (scale of 0 to 100 where 0 is no effect and 100 is complete control) (nutsedge, yellow; 125 g ai/ha)","Plant response rating (scale of 0 to 100 where 0 is no effect and 100 is complete control) (nutsedge, yellow; 250 g ai/ha)","Nutsedge, Yellow plant response rating (0 to 100) (nutsedge, yellow; 31 g ai/ha)","Nutsedge, Yellow plant response rating (0 to 100) (nutsedge, yellow; 62 g ai/ha)",Plant response rating (scale of 0 to 100 where 0 is no effect and 100 is complete control) (oilseed rape; 125 g ai/ha),Plant response rating (scale of 0 to 100 where 0 is no effect and 100 is complete control) (oilseed rape; 250 g ai/ha),Oilseed Rape plant response rating (0 to 100) (oilseed rape; 31 g ai/ha),Oilseed Rape plant response rating (0 to 100) (oilseed rape; 62 g ai/ha),"Plant response rating (0 to 100), Blackgrass (blackgrass)",Plant response rating: Blackgrass (blackgrass; 31 g ai/ha),Plant response rating: Blackgrass (blackgrass; 62 g ai/ha),Plant response rating: Blackgrass (blackgrass; 125 g ai/ha),"Plant response rating (0 to 100), Field Violet (field violet)",Plant response rating: Field Violet (field violet; 62 g ai/ha),Plant response rating: Field Violet (field violet; 125 g ai/ha),"Plant response rating (0 to 100), Kochia (kochia)",Plant response rating: Kochia (kochia; 62 g ai/ha),Plant response rating: Kochia (kochia; 125 g ai/ha),"Plant response rating (0 to 100), Mustard, Wild (wild mustard [1])","Plant response rating: Mustard, Wild (wild mustard [1]; 62 g ai/ha)",also measured
FC(F)(F)COc1nc(-c2ccc(Cl)cc2)nn1Cc1ccnc(C(F)(F)F)c1 [Compound 31],5,5,0,0,45,85,10,20,35,40,60,75,95,100,100,80,90,95,100,100,"Plant response rating: Mustard, Wild (wild mustard [1]; 125 g ai/ha): 100; Plant response rating: Wheat, Spring (wheat, spring; 16 g ai/ha): 30; Plant response rating: Wheat, Spring (wheat, spring; 31 g ai/ha): 35; Plant response rating: Wheat, Spring (wheat, spring; 62 g ai/ha): 40; Plant response rating: Wheat, Spring (wheat, spring; 125 g ai/ha): 45; Plant response rating: Wheat, Winter (wheat, winter; 16 g ai/ha): 20; Plant response rating: Wheat, Winter (wheat, winter; 31 g ai/ha): 20; Plant response rating: Wheat, Winter (wheat, winter; 62 g ai/ha): 20; Plant response rating: Wheat, Winter (wheat, winter; 125 g ai/ha): 30; Plant response rating: Mustard, Wild (wild mustard [2]; 16 g ai/ha): 100; Plant response rating: Mustard, Wild (wild mustard [2]; 31 g ai/ha): 100; Plant response rating: Mustard, Wild (wild mustard [2]; 62 g ai/ha): 100; Plant response rating: Mustard, Wild (wild mustard [2]; 125 g ai/ha): 100"
"CCOc1nc(-c2ccc(C(F)(F)F)cc2)nn1Cc1ccnc(C(F)(F)F)c1 [Compound 35, 4-[[5-ethoxy-3-[4-(trifluoromethyl)phenyl]-1H-1,2,4-triazole-1-yl]methyl]-2-(trifluoromethyl)pyridine]",0,0,0,0,90,90,80,75,35,40,65,95,95,100,100,90,90,90,70,100,"Plant response rating: Mustard, Wild (wild mustard [1]; 125 g ai/ha): 100; Plant response rating: Wheat, Spring (wheat, spring; 16 g ai/ha): 25; Plant response rating: Wheat, Spring (wheat, spring; 31 g ai/ha): 40; Plant response rating: Wheat, Spring (wheat, spring; 62 g ai/ha): 50; Plant response rating: Wheat, Spring (wheat, spring; 125 g ai/ha): 50; Plant response rating: Wheat, Winter (wheat, winter; 16 g ai/ha): 20; Plant response rating: Wheat, Winter (wheat, winter; 31 g ai/ha): 35; Plant response rating: Wheat, Winter (wheat, winter; 62 g ai/ha): 40; Plant response rating: Wheat, Winter (wheat, winter; 125 g ai/ha): 45; Plant response rating: Mustard, Wild (wild mustard [2]; 16 g ai/ha): 70; Plant response rating: Mustard, Wild (wild mustard [2]; 31 g ai/ha): 100; Plant response rating: Mustard, Wild (wild mustard [2]; 62 g ai/ha): 100; Plant response rating: Mustard, Wild (wild mustard [2]; 125 g ai/ha): 100"

# — patent US10681909B2, “Herbicidal triazoles” (FMC Corporation, priority 2014, dated 2020)
